# In patent US10758534B2 (Vertex Pharmaceuticals Incorporated, priority 2014, dated 2020):
# Like-named read-outs stand apart in the source and are kept apart here.
# Target: T1, F508del (Homo sapiens, UniProt P13569, DEL508-508)
# T1 construct: expressed in transfected cells
# Assay: Protocol 2: FRET membrane potential optical assay (VIPR), identification of correction compounds
# Format: cell-based
# How it was run: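 NIH3T3 mouse fibroblasts stably expressing F508del were treated with test compound for 16 hrs at 37° C. in serum-free medium; 27° C. incubation served as positive control. F508del was activated with 10 μM forskolin plus 20 μM genistein in Cl^−-free medium, and Cl^− efflux-driven depolarization was read by DiSBAC2(3)/CC2-DMPE FRET.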
# [1] = F508del CFTR modulator activity, compounds of Table 1, read-out: EC30
# [2] = Table 3, compounds of Table 1 as modulators of CFTR activity, protocol not stated
# T1 sequence (P13569 with tags, fused parts or gaps DEL508-508): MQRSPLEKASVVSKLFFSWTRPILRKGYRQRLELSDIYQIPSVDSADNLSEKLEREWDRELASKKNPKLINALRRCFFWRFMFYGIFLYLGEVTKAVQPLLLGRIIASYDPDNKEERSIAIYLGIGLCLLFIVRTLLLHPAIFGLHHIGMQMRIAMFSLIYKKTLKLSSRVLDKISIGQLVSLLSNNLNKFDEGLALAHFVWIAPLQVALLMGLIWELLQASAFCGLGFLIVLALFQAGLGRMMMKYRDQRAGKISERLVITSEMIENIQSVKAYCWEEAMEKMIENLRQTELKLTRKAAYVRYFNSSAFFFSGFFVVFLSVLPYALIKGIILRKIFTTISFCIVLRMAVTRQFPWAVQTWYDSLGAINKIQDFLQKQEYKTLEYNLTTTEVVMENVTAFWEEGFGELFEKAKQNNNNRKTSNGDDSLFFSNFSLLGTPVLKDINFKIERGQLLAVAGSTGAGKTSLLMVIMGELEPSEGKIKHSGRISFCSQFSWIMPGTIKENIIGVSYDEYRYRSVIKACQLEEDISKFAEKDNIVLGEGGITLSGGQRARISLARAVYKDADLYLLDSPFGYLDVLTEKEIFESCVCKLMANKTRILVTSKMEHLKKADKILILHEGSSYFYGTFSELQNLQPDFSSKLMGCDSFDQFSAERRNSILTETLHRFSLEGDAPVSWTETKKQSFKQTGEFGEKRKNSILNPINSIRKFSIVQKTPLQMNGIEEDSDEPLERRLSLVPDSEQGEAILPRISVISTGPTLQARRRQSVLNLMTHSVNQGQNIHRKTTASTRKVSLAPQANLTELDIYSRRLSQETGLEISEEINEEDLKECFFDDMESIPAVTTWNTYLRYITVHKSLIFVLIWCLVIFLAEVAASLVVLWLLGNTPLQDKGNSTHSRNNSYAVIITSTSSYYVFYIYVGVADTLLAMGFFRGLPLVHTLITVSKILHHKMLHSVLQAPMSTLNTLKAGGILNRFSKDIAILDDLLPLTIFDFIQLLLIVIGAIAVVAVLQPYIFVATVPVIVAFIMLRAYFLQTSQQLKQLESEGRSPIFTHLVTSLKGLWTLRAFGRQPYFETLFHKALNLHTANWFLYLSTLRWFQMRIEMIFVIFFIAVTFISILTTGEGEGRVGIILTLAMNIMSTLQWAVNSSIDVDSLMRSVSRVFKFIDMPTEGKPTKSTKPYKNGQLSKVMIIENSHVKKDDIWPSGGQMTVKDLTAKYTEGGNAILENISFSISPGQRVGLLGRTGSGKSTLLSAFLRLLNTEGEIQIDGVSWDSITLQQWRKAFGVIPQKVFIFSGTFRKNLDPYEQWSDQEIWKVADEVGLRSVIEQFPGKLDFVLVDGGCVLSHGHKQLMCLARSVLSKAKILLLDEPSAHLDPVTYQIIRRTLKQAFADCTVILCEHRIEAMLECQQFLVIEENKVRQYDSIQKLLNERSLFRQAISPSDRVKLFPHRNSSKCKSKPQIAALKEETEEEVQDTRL
EC30 [1],EC30 [2],Structure (SMILES)
< 3000 nM,–,"Cc1cccc(-c2ccc(C(=O)NS(=O)(=O)c3ccccc3)c(N3C[C@@H](C)CC3(C)C)n2)c1O [Compound 2133, N-(benzenesulfonyl)-6-(2-hydroxy-3-methyl-phenyl)-2-[(4S)-2,2,4-trimethylpyrrolidin-1-yl]pyridine-3-carboxamide]"
–,+ (“+” means greater than 10 uM),"Cc1ccc(-c2nc3c(cc2C(=O)NS(=O)(=O)c2ccc(N)nc2)CCCC3(C)C)cc1 [Compound 635, N-[(6-amino-3-pyridyl)sulfonyl]-8,8-dimethyl-2-(p-tolyl)-6,7-dihydro-5H-quinoline-3-carboxamide]"
< 3000 nM,–,"CC1CN(c2ncccc2C(=O)NS(=O)(=O)c2cccc(Nc3c(F)cc(F)cc3F)n2)C(C)(C)C1 (centres unmarked) [Compound 2106, N—[[6-(2,4,6-trifluoroanilino)-2-pyridyl]sulfonyl]-2-(2,2,4-trimethylpyrrolidin-1-yl)pyridine-3-carboxamide]"
< 3000 nM,–,"CC1CN(c2ncccc2C(=O)NS(=O)(=O)c2cccc(OCCc3ccsc3)n2)C(C)(C)C1 (centres unmarked) [Compound 2161, N—[[6-[2-(3-thienyl)ethoxy]-2-pyridyl]sulfonyl]-2-(2,2,4-trimethylpyrrolidin-1-yl)pyridine-3-carboxamide]"
< 3000 nM,–,"COc1cccc(-c2ccc(C(=O)NS(=O)(=O)c3cccnc3N)c(N3C[C@@H](C)CC3(C)C)n2)n1 [Compound 2268, N-[(2-amino-3-pyridyl)sulfonyl]-6-(6-methoxy-2-pyridyl)-2-[(4S)-2,2,4-trimethylpyrrolidin-1-yl]pyridine-3-carboxamide]"
3000 to 10000 nM,–,"COc1cc(CO)cc(-c2ccc(C(=O)NS(=O)(=O)c3ccc[nH]c3=O)c(N3C[C@@H](C)CC3(C)C)n2)c1 [Compound 2247, 6-[3-(hydroxymethyl)-5-methoxy-phenyl]-N-[(2-oxo-1H-pyridin-3-yl)sulfonyl]-2-[(4S)-2,2,4-trimethylpyrrolidin-1-yl]pyridine-3-carboxamide]"
< 3000 nM,–,"COc1cc(F)c(F)cc1-c1ccc(C(=O)NS(=O)(=O)c2cccnc2N)c(N2C[C@@H](C)CC2(C)C)n1 [Compound 2334, N-[(2-amino-3-pyridyl)sulfonyl]-6-(4,5-difluoro-2-methoxy-phenyl)-2-[(4S)-2,2,4-trimethylpyrrolidin-1-yl]pyridine-3-carboxamide]"
< 3000 nM,–,CC[C@@H](C)Oc1ccn(-c2ccc(C(=O)NS(=O)(=O)c3cccnc3N)c(N3C[C@@H](C)CC3(C)C)n2)n1 [Compound 2704]
< 3000 nM,–,"CC1CN(c2ncccc2C(=O)NS(=O)(=O)c2cccc(OCc3ccccc3Cl)n2)C(C)(C)C1 (centres unmarked) [Compound 2273, N—[[6-[(2-chlorophenyl)methoxy]-2-pyridyl]sulfonyl]-2-(2,2,4-trimethylpyrrolidin-1-yl)pyridine-3-carboxamide]"
< 3000 nM,–,"Cc1ccc2nc(N3C[C@@H](C)CC3(C)C)c(C(=O)NS(=O)(=O)c3cccc(N)n3)cc2c1 [Compound 2548, N-[(6-amino-2-pyridyl)sulfonyl]-6-methyl-2-[(4S)-2,2,4-trimethylpyrrolidin-1-yl]quinoline-3-carboxamide]"
3000 to 10000 nM,–,COCCCN(C)c1cccc(S(=O)(=O)NC(=O)c2cccnc2N2CC(C)CC2(C)C)n1 (centres unmarked) [Compound 2734]
< 3000 nM,–,"CC1CN(c2ncccc2C(=O)NS(=O)(=O)c2cccc(N(C)CC(=O)OC(C)(C)C)n2)C(C)(C)C1 (centres unmarked) [Compound 2251, tert-butyl 2-[methyl-[6-[[2-(2,2,4-trimethylpyrrolidin-1-yl)pyridine-3-carbonyl]sulfamoyl]-2-pyridyl]amino]acetate]"
< 3000 nM,–,"C[C@@H]1CN(c2nc(-c3ccc4cc[nH]c4c3)ccc2C(=O)NS(=O)(=O)c2cccnc2N)C(C)(C)C1 [Compound 2054, N-[(2-amino-3-pyridyl)sulfonyl]-6-(1H-indol-6-yl)-2-[(4S)-2,2,4-trimethylpyrrolidin-1-yl]pyridine-3-carboxamide]"
–,+++ (“+++” means <3 uM),"Cc1ccccc1N(C)c1nc(C(C)(C)C)ccc1C(=O)NS(=O)(=O)c1cccc(N)c1 [Compound 193, N-(3-aminophenyl)sulfonyl-6-tert-butyl-2-(N,2-dimethylanilino)pyridine-3-carboxamide]"
–,+++ (“+++” means <3 uM),"Cc1cc(C)c(CN2CCCc3ccccc3C2C(=O)NS(=O)(=O)c2ccccc2)c(C)c1 (centres unmarked) [Compound 674, N-(benzenesulfonyl)-2-[(2,4,6-trimethylphenyl)methyl]-1,3,4,5-tetrahydro-2-benzazepine-1-carboxamide]"
–,++ (“++” means between 3 uM and 10 uM),"COc1cc(F)ccc1-c1ccc(C(=O)NS(=O)(=O)c2ccc[nH]c2=O)c(Oc2c(C)cc(C)cc2C)n1 [Compound 608, 6-(4-fluoro-2-methoxy-phenyl)-N-[(2-oxo-1H-pyridin-3-yl)sulfonyl]-2-(2,4,6-trimethylphenoxy)pyridine-3-carboxamide]"

# More lines, now with the values behind:
Structure (SMILES),EC30 [1],EC30 [2]
"CC1CN(c2ncccc2C(=O)NS(=O)(=O)c2cccc(OC(C)c3ccccc3F)n2)C(C)(C)C1 (centres unmarked) [Compound 2408, N—[[6-[1-(2-fluorophenyl)ethoxy]-2-pyridyl]sulfonyl]-2-(2,2,4-trimethylpyrrolidin-1-yl)pyridine-3-carboxamide]",< 3000 nM,–
"Cc1cc(C)c(Oc2nc(C(C)(C)C)ccc2C(=O)NS(=O)(=O)c2cn(C)nc2N)c(C)c1 [Compound 41, N-(3-amino-1-methyl-pyrazol-4-yl)sulfonyl-6-tert-butyl-2-(2,4,6-trimethylphenoxy)pyridine-3-carboxamide]",–,+++ (“+++” means <3 uM)
"COCCOc1ncc(-c2ccc(C(=O)NS(=O)(=O)c3cccc(N)n3)c(N3C[C@@H](C)CC3(C)C)n2)cc1C [Compound 2582, N-[(6-amino-2-pyridyl)sulfonyl]-6-[6-(2-methoxyethoxy)-5-methyl-3-pyridyl]-2-[(4S)-2,2,4-trimethylpyrrolidin-1-yl]pyridine-3-carboxamide]",< 3000 nM,–
"Cc1cc(C)c(Cc2nc(C(C)(C)C)ccc2C(=O)NS(=O)(=O)c2cccc(N)c2)c(C)c1 [Compound 346, N-(3-aminophenyl)sulfonyl-6-tert-butyl-2-[(2,4,6-trimethylphenyl)methyl]pyridine-3-carboxamide]",–,+++ (“+++” means <3 uM)
"COc1ccc(-c2cc(C(=O)NS(=O)(=O)c3ccccc3)n(Cc3c(C)cccc3C)n2)cc1F [Compound 43, N-(benzenesulfonyl)-2-[(2,6-dimethylphenyl)methyl]-5-(3-fluoro-4-methoxy-phenyl)pyrazole-3-carboxamide]",–,+++ (“+++” means <3 uM)
"CCC(CC)CNc1cccc(S(=O)(=O)NC(=O)c2cccnc2N2CC(C)CC2(C)C)n1 (centres unmarked) [Compound 2305, N—[[6-(2-ethylbutylamino)-2-pyridyl]sulfonyl]-2-(2,2,4-trimethylpyrrolidin-1-yl)pyridine-3-carboxamide]",< 3000 nM,–
"CC(C)(C)c1ccc(C(=O)NS(=O)(=O)c2cccc(N)c2)c(-c2ccccc2)n1 [Compound 542, N-(3-aminophenyl)sulfonyl-6-tert-butyl-2-phenyl-pyridine-3-carboxamide]",–,+++ (“+++” means <3 uM)
"CC(C)CNc1ccc(-c2ccc(C(=O)NS(=O)(=O)c3cccc(N)n3)c(N3CC(C)CC3(C)C)n2)cn1 (centres unmarked) [Compound 569, N-[(6-amino-2-pyridyl)sulfonyl]-6-[16-(isobutylamino)-3-pyridyl]-2-(2,2,4-trimethylpyrrolidin-1-yl)pyridine-3-carboxamide]",–,+++ (“+++” means <3 uM)
"CC1CN(c2ncccc2C(=O)NS(=O)(=O)c2cccc(OCCC(C)(C)C)n2)C(C)(C)C1 (centres unmarked) [Compound 2025, N—[[6-(3,3-dimethylbutoxy)-2-pyridyl]sulfonyl]-2-(2,2,4-trimethylpyrrolidin-1-yl)pyridine-3-carboxamide]",< 3000 nM,–
"CC(C)Oc1ccc(-c2ccc(C(=O)NS(=O)(=O)c3cccc(N)n3)c(N3[C@H](C)CC[C@@H]3C)n2)cn1 [Compound 337, N-[(6-amino-2-pyridyl)sulfonyl]-2-[(2S,5R)-2,5-dimethylpyrrolidin-1-yl]-6-(6-isopropoxy-3-pyridyl)pyridine-3-carboxamide]",–,+++ (“+++” means <3 uM)
CC1CN(c2ncccc2C(=O)NS(=O)(=O)c2cccc(OC3CCOc4ccccc43)n2)C(C)(C)C1 (centres unmarked) [Compound 2737],< 3000 nM,–
"CCCCOCCCNc1cccc(S(=O)(=O)NC(=O)c2cccnc2N2CC(C)CC2(C)C)n1 (centres unmarked) [Compound 2529, N—[[6-(3-butoxypropylamino)-2-pyridyl]sulfonyl]-2-(2,2,4-trimethylpyrrolidin-1-yl)pyridine-3-carboxamide]",< 3000 nM,–
"CC(C)COc1cc(F)cc(-c2nc(N3C[C@@H](C)CC3(C)C)c(C(=O)NS(=O)(=O)c3cccc(N)n3)cc2I)c1 [Compound 2009, N-[(6-amino-2-pyridyl)sulfonyl]-6-(3-fluoro-5-isobutoxy-phenyl)-5-iodo-2-[(4S)-2,2,4-trimethylpyrrolidin-1-yl]pyridine-3-carboxamide]",< 3000 nM,–
"Cc1cc(C)c(Oc2nc(-c3cc(F)cc(OCC(C)C)c3)ccc2C(=O)NS(=O)(=O)c2cc[nH]n2)c(C)c1 [Compound 318, 6-(3-fluoro-5-isobutoxy-phenyl)-N-(1H-pyrazol-3-ylsulfonyl)-2-(2,4,6-trimethylphenoxy)pyridine-3-carboxamide]",–,+++ (“+++” means <3 uM)
"CC(C)COc1cc(F)cc(-c2ccc(C(=O)NS(=O)(=O)c3ccccc3)c(N3CC(C)CC3(C)C)n2)c1 (centres unmarked) [Compound 620, N-(benzenesulfonyl)-6-(3-fluoro-5-isobutoxy-phenyl)-2-(2,2,4-trimethylpyrrolidin-1-yl)pyridine-3-carboxamide]",–,+++ (“+++” means <3 uM)
"Cc1cc(C)c(Oc2nc(C(C)(C)C)ccc2C(=O)NS(=N)(=O)c2cccc(N)c2)c(C)c1 (centres unmarked) [Compound 292, N-[(3-Aminophenyl)sulfonimidoyl]-6-tert-butyl-2-(2,4,6-trimethylphenoxy)pyridine-3-carboxamide]",–,+++ (“+++” means <3 uM)
